From patent US20230263822A1, “MODULATION OF FACTOR 11 EXPRESSION” (Ionis Pharmaceuticals, Inc., priority 2008, published 2023)
Strand notation (5' to 3'): a small letter for the sugar, then the base; units joined by * are phosphorothioate-linked, units joined directly phosphodiester-linked; [ ] holds rarer units or linkages, { } end groups; capitals alone tell only the bases. e = 2'-O-(2-methoxyethyl) (MOE); [5mC] = 5-methylcytosine; d = 2'-deoxy (DNA)

System: human Factor 11 mRNA
Assay: Antisense inhibition of human Factor 11 in HepG2 cells by microwalk gapmers, lipofectin, 75 nM (Example 3)
Format: cell-based
Details: HepG2, lipofectin, ~24 h, gapmers targeted to nucleobases 656 to 704 of SEQ ID NO: 1
Procedure: These gapmers were designed by creating gapmers shifted slightly upstream and downstream (i.e. “microwalk”) of the original gapmers from Table 3. Gapmers were also created with various motifs, e.g. 5-10-5 MOE, 3-14-3 MOE, and 2-13-5 MOE. These gapmers were tested in vitro. Cultured HepG2 cells at a density of 10,000 cells per well were transfected using lipofectin reagent with 75 nM antisense oligonucleotide. After a treatment period of approximately 24 hours, RNA was isolated from the cells and Factor 11 mRNA levels were measured by quantitative real-time PCR. Factor 11 mRNA levels were adjusted according to total RNA content, as measured by RIBOGREEN. Results are presented as percent inhibition of Factor 11, relative to untreated control cells.
The chimeric antisense oligonucleotides in Table 4 were designed as 5-10-5 MOE, 3-14-3 MOE, and 2-13-5 MOE gapmers. The first listed gapmers in Table 4 are the original gapmers (see Table 3) from which the remaining gapmers were designed via microwalk and are designated by an asterisk. The 5-10-5 gapmers are 20 nucleotides in length, wherein the central gap segment is comprised of 10 2′-deoxynucleotides and is flanked on both sides (in the 5′ and 3′ directions) by wings comprising 5 nucleotides each. The 3-14-3 gapmers are 20 nucleotides in length, wherein the central gap segment is comprised of 14 2′-deoxynucleotides and is flanked on both sides (in the 5′ and 3′ directions) by wings comprising 3 nucleotides each. The 2-13-5 gapmers are 20 nucleotides in length, wherein the central gap segment is comprised of 13 2′-deoxynucleotides. The central gap is flanked on the 5′ end with a wing comprising 2 nucleotides and on the 3′ end with a wing comprising 5 nucleotides. For each of the motifs (5-10-5, 3-14-3, and 2-13-5), each nucleotide in the 5′ wing segment and each nucleotide in the 3′ wing segment has a 2′-MOE modification. The internucleoside linkages throughout each gapmer are phosphorothioate (P=S) linkages. All cytidine residues throughout each gapmer are 5-methyl cytidines. “Target start site” indicates the 5′-most nucleotide to which the gapmer is targeted. “Target stop site” indicates the 3′-most nucleotide to which the gapmer is targeted. Each gapmer listed in Table 4 is targeted to SEQ ID NO: 1 (GENBANK Accession No. NM_000128.3).

| Substance | % inhibition [%] |
| --- | --- |
| 416818 (antisense eT*eG*eT*e[5mC]*eT*dA*dG*dG*dT*d[5mC]*d[5mC]*dA*d[5mC]*dA*dT*eA*eA*eA*eT*eG) [compound 416818] | 76 |
| 416897 (antisense eT*eT*eT*dA*dT*dG*d[5mC]*d[5mC]*d[5mC]*dT*dT*d[5mC]*dA*dT*dG*dT*d[5mC]*eT*eA*eG) [compound 416897] | 66 |
| 416824 (antisense e[5mC]*e[5mC]*e[5mC]*eT*eT*d[5mC]*dA*dT*dG*dT*d[5mC]*dT*dA*dG*dG*eT*e[5mC]*e[5mC]*eA*e[5mC]) [compound 416824] | 64 |
| 416966 (antisense e[5mC]*eT*dT*d[5mC]*dA*dT*dG*dT*d[5mC]*dT*dA*dG*dG*dT*d[5mC]*e[5mC]*eA*e[5mC]*eA*eT) [compound 416966] | 64 |
| 416883 (antisense eG*eT*e[5mC]*dT*dA*dG*dG*dT*d[5mC]*d[5mC]*dA*d[5mC]*dA*dT*dA*dA*dA*eT*eG*eT) [compound 416883] | 82 |
| 416811 (antisense e[5mC]*e[5mC]*eA*e[5mC]*eA*dT*dA*dA*dA*dT*dG*dT*d[5mC]*dT*dT*eT*eG*eT*eT*eG) [compound 416811] | 84 |
| 416949 (antisense e[5mC]*eA*dT*dA*dA*dA*dT*dG*dT*d[5mC]*dT*dT*dT*dG*dT*eT*eG*e[5mC]*eA*eA) [compound 416949] | 64 |
| 416820 (antisense e[5mC]*eA*eT*eG*eT*d[5mC]*dT*dA*dG*dG*dT*d[5mC]*d[5mC]*dA*d[5mC]*eA*eT*eA*eA*eA) [compound 416820] | 77 |
| 416810 (antisense e[5mC]*eA*e[5mC]*eA*eT*dA*dA*dA*dT*dG*dT*d[5mC]*dT*dT*dT*eG*eT*eT*eG*e[5mC]) [compound 416810] | 68 |
| 416968 (antisense e[5mC]*e[5mC]*d[5mC]*dT*dT*d[5mC]*dA*dT*dG*dT*d[5mC]*dT*dA*dG*dG*eT*e[5mC]*e[5mC]*eA*e[5mC]) [compound 416968] | 73 |
| 416961 (antisense eT*eG*dT*d[5mC]*dT*dA*dG*dG*dT*d[5mC]*d[5mC]*dA*d[5mC]*dA*dT*eA*eA*eA*eT*eG) [compound 416961] | 40 |
| 416965 (antisense eT*eT*d[5mC]*dA*dT*dG*dT*d[5mC]*dT*dA*dG*dG*dT*d[5mC]*d[5mC]*eA*e[5mC]*eA*eT*eA) [compound 416965] | 53 |
| 416947 (antisense eT*eA*dA*dA*dT*dG*dT*d[5mC]*dT*dT*dT*dG*dT*dT*dG*e[5mC]*eA*eA*eG*e[5mC]) [compound 416947] | 62 |
| 416888 (antisense eT*eT*e[5mC]*dA*dT*dG*dT*d[5mC]*dT*dA*dG*dG*dT*d[5mC]*d[5mC]*dA*d[5mC]*eA*eT*eA) [compound 416888] | 76 |
| 416964 (antisense eT*e[5mC]*dA*dT*dG*dT*d[5mC]*dT*dA*dG*dG*dT*d[5mC]*d[5mC]*dA*e[5mC]*eA*eT*eA*eA) [compound 416964] | 69 |
| 416890 (antisense e[5mC]*e[5mC]*eT*dT*d[5mC]*dA*dT*dG*dT*d[5mC]*dT*dA*dG*dG*dT*d[5mC]*d[5mC]*eA*e[5mC]*eA) [compound 416890] | 87 |
| 416884 (antisense eT*eG*eT*d[5mC]*dT*dA*dG*dG*dT*d[5mC]*d[5mC]*dA*d[5mC]*dA*dT*dA*dA*eA*eT*eG) [compound 416884] | 69 |
| 416971 (antisense eA*eT*dG*d[5mC]*d[5mC]*d[5mC]*dT*dT*d[5mC]*dA*dT*dG*dT*d[5mC]*dT*eA*eG*eG*eT*e[5mC]) [compound 416971] | 83 |
| 416822 (antisense e[5mC]*eT*eT*e[5mC]*eA*dT*dG*dT*d[5mC]*dT*dA*dG*dG*dT*d[5mC]*e[5mC]*eA*e[5mC]*eA*eT) [compound 416822] | 76 |
| 416885 (antisense eA*eT*eG*dT*d[5mC]*dT*dA*dG*dG*dT*d[5mC]*d[5mC]*dA*d[5mC]*dA*dT*dA*eA*eA*eT) [compound 416885] | 67 |

Same assay, conditions: HepG2 cells, lipofectin, gapmers targeted to nucleobases 738 to 762 of SEQ ID NO: 1

| Substance | % inhibition [%] |
| --- | --- |
| 416976 (antisense eT*e[5mC]*d[5mC]*dG*dT*dG*d[5mC]*dA*dT*d[5mC]*dT*dT*dT*d[5mC]*dT*eT*eG*eG*e[5mC]*eA) [compound 416976] | 83 |
| 416978 (antisense e[5mC]*eA*dT*d[5mC]*d[5mC]*dG*dT*dG*d[5mC]*dA*dT*d[5mC]*dT*dT*dT*e[5mC]*eT*eT*eG*eG) [compound 416978] | 76 |
| 416898 (antisense e[5mC]*e[5mC]*eG*dT*dG*d[5mC]*dA*dT*d[5mC]*dT*dT*dT*d[5mC]*dT*dT*dG*dG*e[5mC]*eA*eT) [compound 416898] | 88 |
| 416834 (antisense eG*eT*e[5mC]*eA*eT*d[5mC]*d[5mC]*dG*dT*dG*d[5mC]*dA*dT*d[5mC]*dT*eT*eT*e[5mC]*eT*eT) [compound 416834] | 58 |

Same assay, conditions: HepG2 cells, lipofectin, gapmers targeted to nucleobases 1018 to 1042 of SEQ ID NO: 1

| Substance | % inhibition [%] |
| --- | --- |
| 416983 (antisense eA*eA*d[5mC]*d[5mC]*dG*dG*dG*dA*dT*dG*dA*dT*dG*dA*dG*eT*eG*e[5mC]*eA*eG) [compound 416983] | 86 |

Same assay, conditions: HepG2 cells, lipofectin, gapmers targeted to nucleobases 1062 to 1091 of SEQ ID NO: 1

| Substance | % inhibition [%] |
| --- | --- |
| 416992 (antisense eT*eT*dT*dG*dA*dG*dA*dT*dT*d[5mC]*dT*dT*dT*dG*dG*eG*e[5mC]*e[5mC]*eA*eT) [compound 416992] | 84 |
| 416996 (antisense eT*eT*dT*d[5mC]*dT*dT*dT*dG*dA*dG*dA*dT*dT*d[5mC]*dT*eT*eT*eG*eG*eG) [compound 416996] | 22 |
| 416839 (antisense eG*eA*eT*eT*e[5mC]*dT*dT*dT*dG*dG*dG*d[5mC]*d[5mC]*dA*dT*eT*e[5mC]*e[5mC]*eT*eG) [compound 416839] | 89 |
| 416910 (antisense eG*eA*eT*dT*d[5mC]*dT*dT*dT*dG*dG*dG*d[5mC]*d[5mC]*dA*dT*dT*d[5mC]*e[5mC]*eT*eG) [compound 416910] | 90 |
| 416847 (antisense eT*eT*eT*e[5mC]*eT*dT*dT*dG*dA*dG*dA*dT*dT*d[5mC]*dT*eT*eT*eG*eG*eG) [compound 416847] | 50 |
| 416914 (antisense eT*eT*eG*dA*dG*dA*dT*dT*d[5mC]*dT*dT*dT*dG*dG*dG*d[5mC]*d[5mC]*eA*eT*eT) [compound 416914] | 87 |
| 416990 (antisense eT*eG*dA*dG*dA*dT*dT*d[5mC]*dT*dT*dT*dG*dG*dG*d[5mC]*e[5mC]*eA*eT*eT*e[5mC]) [compound 416990] | 76 |
| 416911 (antisense eA*eG*eA*dT*dT*d[5mC]*dT*dT*dT*dG*dG*dG*d[5mC]*d[5mC]*dA*dT*dT*e[5mC]*e[5mC]*eT) [compound 416911] | 90 |
| 416845 (antisense eT*e[5mC]*eT*eT*eT*dG*dA*dG*dA*dT*dT*d[5mC]*dT*dT*dT*eG*eG*eG*e[5mC]*e[5mC]) [compound 416845] | 86 |

Same assay, conditions: HepG2 cells, lipofectin, gapmers targeted to nucleobases 1275 to 1318 of SEQ ID NO: 1

| Substance | % inhibition [%] |
| --- | --- |
| 417001 (antisense eG*eT*dG*d[5mC]*dA*d[5mC]*dA*dG*dT*dT*dT*d[5mC]*dT*dG*dG*e[5mC]*eA*eG*eG*e[5mC]) [compound 417001] | 83 |
| 416929 (antisense e[5mC]*eA*eT*dT*dG*dG*dT*dG*d[5mC]*dA*d[5mC]*dA*dG*dT*dT*dT*d[5mC]*eT*eG*eG) [compound 416929] | 83 |
| 416920 (antisense eA*e[5mC]*eA*dG*dT*dT*dT*d[5mC]*dT*dG*dG*d[5mC]*dA*dG*dG*d[5mC]*d[5mC]*eT*e[5mC]*eG) [compound 416920] | 88 |
| 416933 (antisense eA*e[5mC]*eG*dG*d[5mC]*dA*dT*dT*dG*dG*dT*dG*d[5mC]*dA*d[5mC]*dA*dG*eT*eT*eT) [compound 416933] | 92 |
| 417020 (antisense e[5mC]*eT*dG*dG*d[5mC]*dA*dG*d[5mC]*dG*dG*dA*d[5mC]*dG*dG*d[5mC]*eA*eT*eT*eG*eG) [compound 417020] | 84 |
| 417007 (antisense eG*e[5mC]*dA*dT*dT*dG*dG*dT*dG*d[5mC]*dA*d[5mC]*dA*dG*dT*eT*eT*e[5mC]*eT*eG) [compound 417007] | 82 |
| 417004 (antisense eT*eT*dG*dG*dT*dG*d[5mC]*dA*d[5mC]*dA*dG*dT*dT*dT*d[5mC]*eT*eG*eG*e[5mC]*eA) [compound 417004] | 86 |
